Source: ChEMBL document CHEMBL1201862, “PubChem BioAssay data set” (2004)
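Cultured in 96-well plates, cells were exposed to test compound for 48 hours across five concentrations. GI50: concentration for 50% inhibition of growth.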 Active and inactive are the calls of the source. No stated cut-off is given here; in the data, active = GI50 up to about 1.1 µM and inactive = higher.

What was measured:
Assay in all cases: inhibition of tumour cell growth, NCI panel, 48 h
HCC 2998 = system: HCC 2998
Malme-3M = system: Malme-3M
SNB-19 = system: SNB-19
NCI/ADR-RES = system: NCI/ADR-RES
UACC-257 = system: UACC-257
MDA-MB-231 = system: MDA-MB-231
MCF7 = system: MCF7
NCI-H460 = system: NCI-H460
NCI-H522 = system: NCI-H522
COLO 205 = system: COLO 205
K562 = system: K562
SK-MEL-28 = system: SK-MEL-28
IGROV-1 = system: IGROV-1
SK-OV-3 = system: SK-OV-3
SK-MEL-2 = system: SK-MEL-2
SF-295 = system: SF-295
NCI-H226 = system: NCI-H226
RXF 393 = system: RXF 393
OVCAR-5 = system: OVCAR-5
OVCAR-3 = system: OVCAR-3
TK-10 = system: TK-10
HT-29 = system: HT-29
A549 = system: A549
ACHN = system: ACHN
HCT-15 = system: HCT-15
HL-60 = system: HL-60
SR = system: SR
M14 = system: M14
SW-620 = system: SW-620
BT-549 = system: BT-549
PC-3 = system: PC-3
SNB-75 = system: SNB-75
NCI-H23 = system: NCI-H23
RPMI-8226 = system: RPMI-8226
KM12 = system: KM12
SF-539 = system: SF-539
HOP-62 = system: HOP-62
DU-145 = system: DU-145
786-0 = system: 786-0
SF-268 = system: SF-268
OVCAR-8 = system: OVCAR-8
MDA-N = system: MDA-N
T47D = system: T47D
UO-31 = system: UO-31
MOLT-4 = system: MOLT-4
UACC-62 = system: UACC-62
OVCAR-4 = system: OVCAR-4
SN12C = system: SN12C
LOX IMVI = system: LOX IMVI
MDA-MB-435 = system: MDA-MB-435
A498 = system: A498
HCT-116 = system: HCT-116
EKVX = system: EKVX
U-251 = system: U-251
CAKI-1 = system: CAKI-1
HOP-92 = system: HOP-92
CCRF-CEM = system: CCRF-CEM
SK-MEL-5 = system: SK-MEL-5
Hs-578T = system: Hs-578T

Question: For Nc1c(C(=O)c2ccc(Cl)c(Cl)c2)[nH]c(NCc2ccccc2)c1C(=S)Nc1ccccc1, which GI50 (HCC 2998) is on record?
Answer: 1.74 µM (inactive)

Question: And the GI50 (Malme-3M)?
Answer: 3.13 µM (inactive)

Question: And the GI50 (SNB-19)?
Answer: 18.5 µM (inactive)

Question: And the GI50 (NCI/ADR-RES)?
Answer: 2.08 µM (inactive)

Question: What about the GI50 (UACC-257) of the same compound?
Answer: 13.8 µM (inactive)

Question: And the GI50 (MDA-MB-231)?
Answer: 4.73 µM (inactive)

Question: And the GI50 (MCF7)?
Answer: 2.47 µM (inactive)

Question: What about the GI50 (NCI-H460) of the same compound?
Answer: 5.42 µM (inactive)

Question: What about the GI50 (NCI-H522) of the same compound?
Answer: 4.83 µM (inactive)

Question: And the GI50 (COLO 205)?
Answer: 1.78 µM (inactive)

Question: What about the GI50 (K562) of the same compound?
Answer: 3.32 µM (inactive)

Question: What about the GI50 (SK-MEL-28) of the same compound?
Answer: 4.63 µM (inactive)

Question: And the GI50 (IGROV-1)?
Answer: 11.8 µM (inactive)

Question: What about the GI50 (SK-OV-3) of the same compound?
Answer: 17.2 µM (inactive)

Question: What about the GI50 (SK-MEL-2) of the same compound?
Answer: 12.4 µM (inactive)

Question: What about the GI50 (SF-295) of the same compound?
Answer: 3.48 µM (inactive)

Question: And the GI50 (NCI-H226)?
Answer: 11.3 µM (inactive)

Question: And the GI50 (RXF 393)?
Answer: 10.4 µM (inactive)

Question: And the GI50 (OVCAR-5)?
Answer: 13.6 µM (inactive)

Question: And the GI50 (OVCAR-3)?
Answer: 17.5 µM (inactive)

Question: And the GI50 (TK-10)?
Answer: 17.8 µM (inactive)

Question: What about the GI50 (HT-29) of the same compound?
Answer: 3.23 µM (inactive)

Question: What about the GI50 (A549) of the same compound?
Answer: 5.15 µM (inactive)

Question: What about the GI50 (ACHN) of the same compound?
Answer: 12.2 µM (inactive)

Question: What about the GI50 (HCT-15) of the same compound?
Answer: 2.51 µM

Question: What about the GI50 (HL-60) of the same compound?
Answer: 19.1 µM (inactive)

Question: And the GI50 (SR)?
Answer: 3.1 µM (inactive)

Question: What about the GI50 (M14) of the same compound?
Answer: 3.56 µM (inactive)

Question: And the GI50 (SW-620)?
Answer: 3.22 µM (inactive)

Question: And the GI50 (BT-549)?
Answer: 15.8 µM (inactive)

Question: And the GI50 (PC-3)?
Answer: 13.8 µM (inactive)

Question: And the GI50 (SNB-75)?
Answer: 10 µM (inactive)

Question: And the GI50 (NCI-H23)?
Answer: 18.2 µM (inactive)

Question: What about the GI50 (RPMI-8226) of the same compound?
Answer: 2.65 µM (inactive)

Question: What about the GI50 (KM12) of the same compound?
Answer: 3.18 µM (inactive)

Question: And the GI50 (SF-539)?
Answer: 2.68 µM (inactive)

Question: And the GI50 (HOP-62)?
Answer: 17.3 µM (inactive)

Question: What about the GI50 (DU-145) of the same compound?
Answer: 15.3 µM (inactive)

Question: What about the GI50 (786-0) of the same compound?
Answer: 11.2 µM (inactive)

Question: What about the GI50 (SF-268) of the same compound?
Answer: 14.1 µM (inactive)

Question: What about the GI50 (OVCAR-8) of the same compound?
Answer: 14.7 µM (inactive)

Question: And the GI50 (MDA-N)?
Answer: 3.64 µM (inactive)

Question: What about the GI50 (T47D) of the same compound?
Answer: 16.5 µM (inactive)

Question: What about the GI50 (UO-31) of the same compound?
Answer: 6.7 µM (inactive)

Question: And the GI50 (MOLT-4)?
Answer: 3.31 µM (inactive)

Question: And the GI50 (UACC-62)?
Answer: 14.3 µM (inactive)

Question: And the GI50 (OVCAR-4)?
Answer: 3.81 µM (inactive)

Question: And the GI50 (SN12C)?
Answer: 14.9 µM (inactive)

Question: What about the GI50 (LOX IMVI) of the same compound?
Answer: 2.21 µM (inactive)

Question: What about the GI50 (MDA-MB-435) of the same compound?
Answer: 5.08 µM (inactive)

Question: What about the GI50 (A498) of the same compound?
Answer: 15.3 µM (inactive)

Question: And the GI50 (HCT-116)?
Answer: 3.48 µM (inactive)

Question: And the GI50 (EKVX)?
Answer: 14.7 µM (inactive)

Question: And the GI50 (U-251)?
Answer: 3.96 µM (inactive)

Question: And the GI50 (CAKI-1)?
Answer: 15.3 µM (inactive)

Question: Which GI50 (Malme-3M) does the source give for Cc1nn(C(=O)c2ccccc2O)c2c1C(c1ccc(O)cc1O)SC(=N)N2 (stereo not given) here?
Answer: > 10 µM (inactive)

Question: And the GI50 (SNB-19)?
Answer: 4.86 µM (inactive)

Question: What about the GI50 (NCI/ADR-RES) of the same compound?
Answer: 3.33 µM (inactive)

Question: What about the GI50 (MDA-MB-231) of the same compound?
Answer: 5.14 µM (inactive)

Question: What about the GI50 (HOP-92) of the same compound?
Answer: 3.67 µM (inactive)

Question: What about the GI50 (MCF7) of the same compound?
Answer: 0.472 µM (active)

Question: And the GI50 (NCI-H460)?
Answer: 4.6 µM (inactive)

Question: And the GI50 (COLO 205)?
Answer: 9.35 µM (inactive)

Question: And the GI50 (K562)?
Answer: 2.63 µM (inactive)

Question: What about the GI50 (SK-MEL-28) of the same compound?
Answer: 8.91 µM (inactive)

Question: What about the GI50 (IGROV-1) of the same compound?
Answer: 3.48 µM (inactive)

Question: And the GI50 (SK-OV-3)?
Answer: 3.6 µM (inactive)

Question: What about the GI50 (SK-MEL-2) of the same compound?
Answer: > 10 µM (inactive)

Question: And the GI50 (SF-295)?
Answer: > 10 µM (inactive)

Question: And the GI50 (NCI-H226)?
Answer: 1.32 µM (inactive)

Question: And the GI50 (RXF 393)?
Answer: 5.52 µM (inactive)

Question: And the GI50 (OVCAR-5)?
Answer: 1.04 µM (active)

Question: And the GI50 (OVCAR-3)?
Answer: 2.96 µM (inactive)

Question: What about the GI50 (TK-10) of the same compound?
Answer: > 10 µM (inactive)

Question: What about the GI50 (HT-29) of the same compound?
Answer: > 10 µM (inactive)

Question: What about the GI50 (A549) of the same compound?
Answer: 4.76 µM (inactive)

Question: What about the GI50 (CCRF-CEM) of the same compound?
Answer: 3.05 µM (inactive)

Question: And the GI50 (ACHN)?
Answer: 4.75 µM (inactive)

Question: And the GI50 (HCT-15)?
Answer: 3.66 µM

Question: What about the GI50 (HL-60) of the same compound?
Answer: 5.52 µM (inactive)

Question: And the GI50 (SR)?
Answer: 6.67 µM (inactive)

Question: What about the GI50 (M14) of the same compound?
Answer: 3.61 µM (inactive)

Question: And the GI50 (SW-620)?
Answer: 5.04 µM (inactive)

Question: What about the GI50 (BT-549) of the same compound?
Answer: 2.52 µM (inactive)

Question: And the GI50 (PC-3)?
Answer: 3.22 µM (inactive)

Question: And the GI50 (SNB-75)?
Answer: 2.48 µM (inactive)

Question: What about the GI50 (NCI-H23) of the same compound?
Answer: 3.98 µM (inactive)

Question: And the GI50 (RPMI-8226)?
Answer: 2.89 µM (inactive)

Question: And the GI50 (KM12)?
Answer: 6.19 µM (inactive)

Question: And the GI50 (SF-539)?
Answer: 3.77 µM (inactive)

Question: What about the GI50 (HOP-62) of the same compound?
Answer: 3.02 µM (inactive)

Question: And the GI50 (SK-MEL-5)?
Answer: 4.12 µM (inactive)

Question: What about the GI50 (DU-145) of the same compound?
Answer: 8.28 µM (inactive)

Question: And the GI50 (786-0)?
Answer: 6.85 µM (inactive)

Question: And the GI50 (Hs-578T)?
Answer: 1.91 µM (inactive)

Question: What about the GI50 (SF-268) of the same compound?
Answer: 4.75 µM (inactive)

Question: And the GI50 (OVCAR-8)?
Answer: 6.04 µM (inactive)

Question: And the GI50 (MDA-N)?
Answer: 5.78 µM (inactive)

Question: And the GI50 (UO-31)?
Answer: 2.84 µM (inactive)

Question: What about the GI50 (MOLT-4) of the same compound?
Answer: 3.48 µM (inactive)

Question: What about the GI50 (UACC-62) of the same compound?
Answer: 1.89 µM (inactive)

Question: And the GI50 (OVCAR-4)?
Answer: 2.94 µM (inactive)

Question: What about the GI50 (SN12C) of the same compound?
Answer: 9.71 µM (inactive)

Question: And the GI50 (LOX IMVI)?
Answer: 4.6 µM (inactive)

Question: What about the GI50 (MDA-MB-435) of the same compound?
Answer: 4.05 µM (inactive)

Question: And the GI50 (A498)?
Answer: 3.61 µM (inactive)

Question: What about the GI50 (HCT-116) of the same compound?
Answer: 3.83 µM (inactive)

Question: What about the GI50 (EKVX) of the same compound?
Answer: 8.11 µM (inactive)

Question: What about the GI50 (U-251) of the same compound?
Answer: 5.58 µM (inactive)

Question: What about the GI50 (CAKI-1) of the same compound?
Answer: 4.29 µM (inactive)
